From patent US20210116454A1, “METHODS FOR TREATING A HEMATOLOGICAL CANCER AND THE USE OF COMPANION BIOMARKERS FOR 2-(2,6-DIOXOPIPERIDIN-3-YL)-4-((2-FLUORO-4-((3-MORPHOLINOAZETIDIN-1-YL)METHYL)BENZYL)AMINO)ISOINDOLINE-1,3-DIONE” (CELGENE CORPORATION, priority 2019, published 2021) come the findings set out here.

For one test, the system named is TMD8 cells. Nature of the test: Western blot of substrates and downstream proteins. The class given is cell-based. How it is done:
To confirm that the rapid degradation of substrates and induction of apoptosis by Compound 1 is not unique to SU-DHL2 cells, TMD8 (ABC cell line) and Karpas-422 (GCB-cell line) cells were treated with vehicle control (DMSO) or Compound 1 at the times and concentrations indicated (FIG. 6).
In a second experiment, we confirmed that Compound 1 (100 nM) treatment of TMD8 produced a large reduction of Aiolos, Ikaros, and ZFP91 at the 24-hour timepoint. […] In Karpas-422 cells, Compound 1 also produced a reduction of Aiolos, Ikaros, and ZFP91 at the 24-hour timepoint (FIG. 6, panel D). At the 48-hour timepoint, Compound 1 increased the abundance of the proliferation inhibitor p21 and the interferon-stimulated genes IRF7, IFIT3, and DDX58, and reduced the expression of MYC (FIG. 6, panel D).
For orientation: Immunoblotting shows a protein as a band on a membrane.

In test [1] the test system is KARPAS-422, RIVA, HT, and SU-DHL-4 cell lines. Nature of the test: Dose response in cells expressing degradation-resistant mutants of Ikaros, Aiolos, ZFP91. The class given is cell-based. Conditions: KARPAS-422 and SU-DHL-4. From the text: To test whether Ikaros and Aiolos were redundant in promoting the survival and proliferation of DLBCL lines, degradation-resistant mutants of Ikaros (IKZF1-G151A), Aiolos (IKZF3-G152A), and ZFP91 (ZFP91-G405A), along with NanoLuc luciferase (Nluc) as a control, were ectopically and stably expressed in four DLBCL cell lines: KARPAS-422, RIVA, HT, and SU-DHL-4. Dose response curves with Compound 1 indicate that expression of degradation-resistant mutants of Ikaros or Aiolos provided protection from Compound 1 in all four cell lines (FIG. 11). Additionally, the ectopic expression of the degradation-resistant mutants, as well as their protection against Compound 1-induced degradation, was confirmed by immunoblot analysis. […] Beta-actin levels were used as a control. […] However, there were varying degrees of protection observed in the four cell lines.

The target of test [2] is T1, ZFP91 (Homo sapiens, UniProt Q96JP5+Q96SW2).
T1 construct: expressed in transfected cells; host or cells: DF15 cells
As to the kind of experiment: Enzyme fragment complementation (EFC) degradation assay, DF15 cells expressing ePL-tagged substrate. Conditions: for Emax: remaining substrate; for DC50: read-out: ZFP91 degradation EC50. The class given is cell-based.

Another test has as its target Ikaros (Homo sapiens, UniProt Q13422+Q96SW2). The test is described as above. The class given is cell-based. Also noted: expressed in transfected cells; host or cells: DF15 cells. The note with it: for Emax: DF15, DF15 ePL-Ikaros, remaining substrate; for DC50: DF15 ePL-Ikaros, read-out: Ikaros degradation EC50.
The subject of a further test is LPS system. Nature of the test: BioMAP LPS system (PBMCs and endothelial cells). The class given is cell-based, human. The note with it: 0.01, 0.1, 1, and 10 μM. The method, then:
The activity of Compound 1 was profiled in a panel of human primary cell-based assays, modeling complex tissue and disease biology of organs (vasculature, immune system, skin, lung) and general tissue biology using the BioMAP System (DiscoveRx, Fremont, Calif.).
The BioMAP System consists of twelve primary human monoculture or co-culture systems in stimulated and non-stimulated control conditions (FIG. 4, panel A). When tested at 0.01, 0.1, 1, and 10 μM, Compound 1 mediated changes in key biomarker activities. Specifically, the profiles for Compound 1 reflected selective anti-inflammatory and immunomodulatory impact on monocyte (LPS) and T cell dependent B cell activation responses (BT). Treatment with Compound 1 led to a decrease in interleukin 8 (IL-8), interleukin 1a (IL-1a), secreted prostaglandin E2 (sPGE2), and secreted tumor necrosis factor alpha (sTNFα) in the LPS system, which consisted of peripheral blood mononuclear cells (PBMCs) and endothelial cells. Furthermore, secreted IgG (sIgG), secreted interleukin 17A (sIL-17A), secreted interleukin 17F (sIL-17F), and sTNFα decreased, whereas secreted interleukin 2 (sIL-2) and secreted interleukin 6 (sIL-6) increased, in the BT system, which was comprised of B cells and PBMCs.

In test [3] the target is T1, ZFP91. As to the kind of experiment: ePL-tagged substrate degradation kinetics in DF15 cells (enantiomer comparison). The class given is cell-based. Details: ZFP91 Y-constant: scale not given here. The note with it: for DC50: read-out: ZFP91 EC50. How it is done:
In a second assay, DF15 cell lines expressing ePL-tagged target protein substrates were used as a model system to monitor protein degradation at 0.75, 1, 1.5, 3, 4, and 24 hours over a concentration range from 1 pM to 10 μM. The proteins evaluated were Ikaros (FIG. 17), Aiolos, and ZFP91. Compound 1 and Compound 2 were both able to degrade the substrate proteins at all time points (Table 9). In a further assay, additional time points were included to monitor the effect of treatment with Compound 1 and Compound 2.
The depth of substrate protein degradation described by the Y-constant was also measured in this assay against a negative control luciferase inhibitor (CC1071297, Y-constant=0).

A further test addresses cereblon (CRBN) (Homo sapiens, UniProt Q96SW2). As to the kind of experiment: Cereblon binding TR-FRET ligand competition assay. How it is done: To investigate whether Compound 1 and its R-enantiomer Compound 2 could bind to cereblon, a short duration (10 to 20 minutes) ligand competition assay was used.
A further test deals with DoxoR cell lines. As to the kind of experiment: Doxorubicin-resistant (DoxoR) versus matching parental DLBCL lines. The class given is cell-based. Conditions: DoxoR versus matching parental cells. How it is done: The activity of Compound 1 was also evaluated in cell lines with acquired resistance to doxorubicin (Table 4). Doxorubicin-resistant cell lines (DoxoR) were generated by culturing the parental cell lines in vitro with increasing concentrations of doxorubicin for a long period of time (˜9 to 18 months) until they were able to grow in the presence of a relatively high concentration of doxorubicin (1 μM). Matching parental (M-Parent) cells were generated by maintaining the parental cells in culture without treatment for the same amount of time (˜9 to 18 months). The growth-inhibitory effect of doxorubicin on parental cells and the corresponding resistant cells was evaluated by measuring the number of viable cells and extent of apoptosis by 7-AAD exclusion and Annexin V staining using flow cytometry.

Setting [4] is: TMD8, 100 nM, 24-hour timepoint.

Like-named read-outs stand apart in the source and are kept apart here.

A word on the Emax: it is the maximal effect, on the per cent scale that the assay sets. By IC50 is commonly meant the midpoint of a concentration-inhibition curve. Take `O=C1CC[C@H](N2C(=O)c3cccc(NCc4ccc(CN5CC(N6CCOCC6)C5)cc4F)c3C2=O)C(=O)N1` [Compound 1, (S)-2-(2,6-dioxopiperidin-3-yl)-4-((2-fluoro-4-((3-morpholinoazetidin-1-yl)methyl)benzyl)amino)isoindoline-1,3-dione]: the BCL6 reduction in the test on TMD8 cells (setting [4]) came out at 65%. Further, the IRF4 reduction in the test with TMD8 cells (setting [4]) is given as 90%. Further, the MYC reduction in the test with TMD8 cells (setting [4]) is recorded as 75%. Besides, the “Ikaros, Aiolos, and ZFP91 protein expression” value with TMD8 cells (TMD8, 10 and 100 nM, entire course of treatment) is “complete suppression”. Moreover, the “protection by degradation-resistant mutants of Ikaros or Aiolos” value in test [1] is recorded as “nearly complete protection”. The Emax on ZFP91 [2] (DF15, DF15 ePL-ZFP91, 1 hour) came out at 64%; on ZFP91 [2] (DF15, DF15 ePL-ZFP91, 2 hours) it was 26.5%; on ZFP91 [2] (DF15, DF15 ePL-ZFP91, 6 hours), 4%; at ZFP91 [2] (DF15, DF15 ePL-ZFP91, 24 hours) it was 2.5%; at Ikaros (1 hour), 75.5%; on Ikaros (2 hours), 33%. For the same compound, the Emax was 1.5% on Ikaros (6 hours) and 0.03% on Ikaros (24 hours). Besides, the DC50 at ZFP91 [2] (DF15 ePL-ZFP91, 1 hour) came out at 1 nM; on ZFP91 [2] (DF15 ePL-ZFP91, 2 hours), 0.5 nM; on ZFP91 [2] (DF15 ePL-ZFP91, 6 hours), 0.2 nM; at ZFP91 [2] (DF15 ePL-ZFP91, 24 hours), 0.1 nM; on Ikaros (1 hour), 0.6 nM; at Ikaros (2 hours), 0.8 nM. For the same compound, the DC50 on Ikaros (6 hours) is 0.5 nM; on Ikaros (24 hours), 0.4 nM; at ZFP91 [3] (0.75 hours), 0.54 nM; at ZFP91 [3] (1 hour), 0.36 nM; at ZFP91 [3] (1.5 hours), 0.36 nM; on ZFP91 [3] (3 hours), 0.19 nM. The DC50 on ZFP91 [3] (4 hours) was determined as 0.17 nM; at ZFP91 [3] (24 hours), 0.15 nM. The “IL-8, IL-1a, sPGE2, and sTNFα” value with LPS system was “decrease”. Also, the “ZFP91 Y-constant” value on ZFP91 [3] (0.75 hours) is 37; on ZFP91 [3] (1 hour), 28; on ZFP91 [3] (1.5 hours), 11; at ZFP91 [3] (3 hours) it was 4.9; on ZFP91 [3] (4 hours), 4.3; on ZFP91 [3] (24 hours), 2.0. At cereblon (CRBN), the “higher binding affinity for CRBN compared to Compound 2” value is listed as “eleven-fold”. This compound yielded an IC50 on cereblon (CRBN) (10 to 20 minutes, n=5) of 860 ± 100 nM.
As to `COc1cccc2c1C(=O)c1c(O)c3c(c(O)c1C2=O)C[C@@](O)(C(=O)CO)C[C@@H]3O[C@H]1C[C@H](N)[C@H](O)[C@H](C)O1` [Doxorubicin, reference compound], the “shifts in IC50 values for doxorubicin in DoxoR lines” value in the test on DoxoR cell lines is reported as “more than 100 fold”.
